Legend:
[1] = Drug interaction summary: effect of co-administered drugs on maribavir pharmacokinetics (Tables 1-A, 1-B); conditions: concomitant drug with maribavir; observed and predicted
From the text: Drug interaction studies were summarized based on Example 2 and other available data (e.g., in vitro and clinical data).

[2] = Drug interaction summary: effect of maribavir 400 mg twice daily on co-administered drug pharmacokinetics (Tables 1-A, 1-C); type: in vivo, human; conditions: for Effect on Concentration (of concomitant drug): concomitant drug with maribavir, observed and predicted; for Geometric Mean Ratio of co-administered drug PK with/without maribavir (No Effect = 1.00), AUC / Geometric Mean Ratio of co-administered drug PK with/without maribavir (No Effect = 1.00), Cmax: digoxin 0.5 mg single dose
[3] = set-up: species or system human; conditions: in vivo
From the text: Accumulated data have shown that maribavir is metabolized primarily in the liver, and renal clearance is a minor route (representing less than 5 percent). VP 44469 (N-dealkylated Maribavir) was the principal metabolite of maribavir in both urine and feces. In plasma, unchanged maribavir and VP 44469 represented approximately 69% and 9.8% of total radioactivity, respectively. The hepatic metabolism of maribavir was primarily driven by cytochrome P450s. CYP3A4 and CYP1A2 were responsible for 70 to 85% and 15 to 30% of the CYP-driven pathways, respectively. Glucuronidation accounted for less than 20% of metabolism.
Distribution models evaluated included a full PBPK model and a minimal PBPK model, both of which consider liver and intestinal metabolism. Mass balance data from the [^14C] ADME study indicated a fraction absorbed of 0.83 or greater following oral administration of 400 mg dose of maribavir. Absorption models evaluated included a simple first-order absorption model and a more mechanistic “Advanced Dissolution Absorption and Metabolism” (ADAM) model.

[4] = in the presence of 400 mg twice daily maribavir, tacrolimus stable dose twice daily

| Structure (SMILES) | Effect on Concentration (of maribavir) [1] | Effect on Concentration (of concomitant drug) [2] | further results |
| --- | --- | --- | --- |
| CO[C@H]1/C=C/O[C@@]2(C)Oc3c(C)c(O)c4c(c3C2=O)C2=NC3(CCN(CC(C)C)CC3)NC2=C(NC(=O)/C(C)=C\C=C\[C@H](C)[C@H](O)[C@@H](C)[C@@H](O)[C@@H](C)[C@H](OC(C)=O)[C@@H]1C)C4=O [Rifabutin, reference compound] | ↓Maribavir |  |  |
| CO[C@H]1C[C@@H]2CC[C@@H](C)[C@@](O)(O2)C(=O)C(=O)N2CCCC[C@H]2C(=O)O[C@H]([C@H](C)C[C@@H]2CC[C@@H](O)[C@H](OC)C2)CC(=O)[C@H](C)/C=C(\C)[C@@H](O)[C@@H](OC)C(=O)[C@H](C)C[C@H](C)/C=C/C=C/C=C/1C [Sirolimus] |  | ↑Sirolimus |  |
| CO[C@H]1/C=C/O[C@@]2(C)Oc3c(C)c(O)c4c(O)c(c(/C=N/N5CCN(C)CC5)c(O)c4c3C2=O)NC(=O)/C(C)=C\C=C\[C@H](C)[C@H](O)[C@@H](C)[C@@H](O)[C@@H](C)[C@H](OC(C)=O)[C@@H]1C [Rifampin, reference compound] | ↓Maribavir |  |  |
| C[C@H]1O[C@@H](O[C@H]2[C@@H](O)C[C@H](O[C@H]3[C@@H](O)C[C@H](O[C@H]4CC[C@@]5(C)[C@H](CC[C@@H]6[C@@H]5C[C@@H](O)[C@]5(C)[C@@H](C7=CC(=O)OC7)CC[C@]65O)C4)O[C@@H]3C)O[C@@H]2C)C[C@H](O)[C@@H]1O [digoxin] |  | ↑digoxin | Geometric Mean Ratio of co-administered drug PK with/without maribavir (No Effect = 1.00), AUC [2, 4]: 1.21; Geometric Mean Ratio of co-administered drug PK with/without maribavir (No Effect = 1.00), Cmax [2, 4]: 1.25 |
| NC(=O)N1c2ccccc2C=Cc2ccccc21 [Carbamazepine, reference compound] | ↓Maribavir |  |  |
| CCC1(c2ccccc2)C(=O)NC(=O)NC1=O [Phenobarbital, reference compound] | ↓Maribavir |  |  |
| CO[C@H]1C[C@@H]2CC[C@@H](C)[C@@](O)(O2)C(=O)C(=O)N2CCCC[C@H]2C(=O)O[C@H]([C@H](C)C[C@@H]2CC[C@@H](OCCO)[C@H](OC)C2)CC(=O)[C@H](C)/C=C(\C)[C@@H](O)[C@@H](OC)C(=O)[C@H](C)C[C@H](C)/C=C/C=C/C=C/1C [Everolimus] |  | ↑Everolimus |  |
| C=CC[C@@H]1/C=C(\C)C[C@H](C)C[C@H](OC)[C@H]2O[C@@](O)(C(=O)C(=O)N3CCCC[C@H]3C(=O)O[C@H](/C(C)=C/[C@@H]3CC[C@@H](O)[C@H](OC)C3)[C@H](C)[C@@H](O)CC1=O)[C@H](C)C[C@@H]2OC [Tacrolimus] |  | ↑Tacrolimus | increase of tacrolimus exposure by maribavir ([2]; co-administration with maribavir): 51%; Geometric Mean Ratio of co-administered drug PK with/without maribavir (No Effect = 1.00), Ctrough [2, 4]: 1.57; Geometric Mean Ratio of co-administered drug PK with/without maribavir (No Effect = 1.00), AUC [2, 4]: 1.51; Geometric Mean Ratio of co-administered drug PK with/without maribavir (No Effect = 1.00), Cmax [2, 4]: 1.38 |
| Nc1nc2cc(Cl)c(Cl)cc2n1[C@H]1O[C@@H](CO)[C@H](O)[C@@H]1O [VP 44469, N-dealkylated Maribavir] |  |  | share of total radioactivity in plasma [3]: ~9.8% |
| O=C1NC(=O)C(c2ccccc2)(c2ccccc2)N1 [Phenytoin, reference compound] | ↓Maribavir |  |  |

Reference: patent publication US12447170B2, “Use of maribavir in treatment regimens” (priority 2021, dated 2025)
